Experimental data published in paper PMC3601661 (Steroids, 2012).
Where two headings read alike, the source gives them in different places.

Assays:
[1] = Sulforhodamine B; type: cell-based; settings: human
[2] = tested on: prolactin (PRL) mRNA; assay: Quantitative PCR of decidualization gene PRL in HESC; type: cell-based, human; settings: 100 μM, 48 h, with E2 and 8-Br-cAMP
[3] = tested on: MPA-induced mammary tumors; settings: rats; cited from earlier work
[4] = tested on: ZBTB16 mRNA; assay: Quantitative PCR of the P4 responsive gene ZBTB16 in T47D cells; type: cell-based, human; settings: 100 μM, 24 h
[5] = molecular target: T1, progesterone receptor ligand binding domain (PR-LBD-GST) (Homo sapiens, UniProt P06401); assay: Progesterone receptor polarization competitive binding assay
T1 sequence (P06401 675-933): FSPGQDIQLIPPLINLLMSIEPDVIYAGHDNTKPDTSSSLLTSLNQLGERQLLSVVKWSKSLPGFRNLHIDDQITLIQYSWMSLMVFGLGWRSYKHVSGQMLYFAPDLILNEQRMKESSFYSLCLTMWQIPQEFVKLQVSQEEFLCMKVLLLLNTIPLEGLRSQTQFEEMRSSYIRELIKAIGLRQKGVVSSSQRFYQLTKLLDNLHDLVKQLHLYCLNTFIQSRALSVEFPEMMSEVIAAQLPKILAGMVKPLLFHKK

[6] = molecular target: T2, progesterone receptor (PR) (Homo sapiens, UniProt P06401); assay: PRE-luciferase reporter assay in T47D cells; type: cell-based; settings: for PRE-luciferase Fold increase (10μM): compound 10 μM, over DMSO; for dose-dependent activation of PRE-luciferase: five increasing doses; for compound-induced PRE-luciferase activity in the presence of RU486: with 1 μM RU486, T47D cells
T2 sequence (P06401 679-933 limits assumed): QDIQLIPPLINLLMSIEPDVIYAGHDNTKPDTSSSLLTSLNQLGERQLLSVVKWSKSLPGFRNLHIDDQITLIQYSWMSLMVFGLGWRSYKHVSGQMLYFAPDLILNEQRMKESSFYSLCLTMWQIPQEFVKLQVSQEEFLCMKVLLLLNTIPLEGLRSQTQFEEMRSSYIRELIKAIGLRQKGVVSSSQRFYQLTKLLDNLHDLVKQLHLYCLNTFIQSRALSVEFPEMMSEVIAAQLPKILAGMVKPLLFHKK

[7] = molecular target: T2, progesterone receptor (PR); assay: PRE-luciferase in T47D cells in combination with P4; type: cell-based; settings: 10 μM compound plus 100 nM P4, 24 h
[8] = tested on: ovarian cancer; settings: kaempferol intake, human observational studies; cited from earlier work
[9] = tested on: PRA and PRB protein; assay: Western blot of PRA and PRB expression in T47D cells; type: cell-based, human; settings: P4 1 μM, flavonoids 100 μM, 1.5 h or 16 h
[10] = molecular target: T3, progesterone receptor (PR) (Homo sapiens, UniProt P06401); assay: PRE-luciferase reporter assay in human endometrial stromal cells; type: cell-based; settings: for dose-dependent activation of PRE-luciferase: HESC; for compound-induced PRE-luciferase in the presence of RU486: compound 20 μM with 1 μM RU486, HESC
T3 sequence (P06401 1-933): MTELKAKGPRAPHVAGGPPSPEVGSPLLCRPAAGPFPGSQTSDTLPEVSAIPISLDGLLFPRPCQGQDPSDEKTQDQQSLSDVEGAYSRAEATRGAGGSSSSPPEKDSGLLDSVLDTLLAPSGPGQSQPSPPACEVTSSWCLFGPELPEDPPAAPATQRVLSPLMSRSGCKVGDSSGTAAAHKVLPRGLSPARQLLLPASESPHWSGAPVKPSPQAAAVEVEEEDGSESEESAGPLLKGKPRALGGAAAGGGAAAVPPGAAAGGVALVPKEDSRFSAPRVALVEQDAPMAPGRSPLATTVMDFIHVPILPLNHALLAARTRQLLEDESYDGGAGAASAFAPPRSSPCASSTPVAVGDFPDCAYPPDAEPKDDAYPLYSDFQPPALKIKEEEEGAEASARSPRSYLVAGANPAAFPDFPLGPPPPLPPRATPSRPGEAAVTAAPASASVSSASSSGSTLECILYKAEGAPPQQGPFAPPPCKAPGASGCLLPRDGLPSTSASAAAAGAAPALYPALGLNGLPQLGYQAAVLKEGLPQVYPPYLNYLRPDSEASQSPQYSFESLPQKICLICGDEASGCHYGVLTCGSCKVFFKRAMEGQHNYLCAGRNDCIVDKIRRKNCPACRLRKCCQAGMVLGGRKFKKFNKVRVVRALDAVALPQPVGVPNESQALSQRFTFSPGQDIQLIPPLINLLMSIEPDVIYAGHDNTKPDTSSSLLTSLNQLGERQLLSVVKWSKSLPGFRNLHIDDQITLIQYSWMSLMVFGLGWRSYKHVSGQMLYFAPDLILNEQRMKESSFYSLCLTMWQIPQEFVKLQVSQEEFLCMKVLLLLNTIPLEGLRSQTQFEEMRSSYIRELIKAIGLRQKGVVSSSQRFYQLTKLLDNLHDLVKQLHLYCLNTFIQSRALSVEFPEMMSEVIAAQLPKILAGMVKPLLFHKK

[11] = tested on: T47D cells; assay: Sulforhodamine B; type: cell-based
[12] = tested on: cannabinoid receptor 1 (CNR1) mRNA; assay: Quantitative PCR of decidualization gene CNR1 in HESC; type: cell-based, human; settings: 100 μM, 48 h, with E2 and 8-Br-cAMP

Structure (SMILES) | induction of PRL expression [2] | induction of ZBTB16 mRNA [4] | IC50 [5] [µM] | PRE-luciferase Fold increase (10μM) ([6]; T47D cells) [fold] | dose-dependent activation of PRE-luciferase ([6]; T47D cells) | compound-induced PRE-luciferase activity in the presence of RU486 [6] | CC50 at 24 h ([1]; T47D cells) [µM] | downregulation of PRA and PRB protein expression [9] | other results
O=c1cc(-c2ccc(O)cc2)oc2cc(O)cc(O)c12 [Apigenin, apigenin] | induced PRL expression | did not induce | – | – | – | – | – | – | CC50 at 24 h [1]: > 20 µM; development of MPA-induced mammary tumors [3]: prevents the development
O=c1c(O)c(-c2ccc(O)cc2)oc2cc(O)cc(O)c12 [Kaempferol, kaempferol] | induced PRL expression | significantly induced | 1.5 ± 0.4 | 5.5 ± 1.8 | dose-dependently activated | significantly abrogate | > 20 | not observed | concentration of highest PRE-luciferase activity from dose response curves ([6]; T47D cells): 7.5 µM; concentration above which PRE-luciferase activity started to decrease ([6]; likely due to cell death): > 10 µM; downregulation of P4-induced PRE-luciferase [7]: significantly downregulated; decrease of ovarian cancer incidence [8]: 40%; dose-dependent activation of PRE-luciferase [10]: dose-dependently activated; compound-induced PRE-luciferase in the presence of RU486 [10]: significantly inhibited
CC(=O)[C@H]1CC[C@H]2[C@@H]3CCC4=CC(=O)CC[C@]4(C)[C@H]3CC[C@]12C [Progesterone, reference compound] | – | – | – | – | dose-dependently activated | significantly abrogate | – | downregulation of PRB and more noticeably PRA | –
CC(=O)O[C@]1(C(C)=O)CC[C@H]2[C@@H]3C[C@H](C)C4=CC(=O)CC[C@]4(C)[C@H]3CC[C@@]21C [MPA, medroxyprogesterone acetate, reference compound] | – | – | – | – | – | – | – | – | PRE-luciferase activity compared with P4 ([6]; T47D cells, data not shown): comparable activity; dose-dependent activation of PRE-luciferase [10]: dose-dependently activated; compound-induced PRE-luciferase in the presence of RU486 [10]: significantly inhibited
O=c1c(-c2ccc(O)cc2)coc2cc(O)ccc12 [Daidzein, daidzein] | – | – | > 250 | 1.0 ± 0.4 | – | – | > 20 | – | –
COc1ccc(-c2coc3cc(O)cc(O)c3c2=O)cc1 [Biochanin A, biochanin A] | – | – | – | 1.0 ± 0.1 | – | – | – | – | IC50 ([5]; read-out: PR Binding IC50, pure compounds, purified PR): > 250 µM; CC50 [11]: > 20 µM
O=C1C[C@@H](c2ccc(O)cc2)Oc2cc(O)cc(O)c21 [Naringenin, naringenin] | induced PRL expression | did not induce | 6.9 ± 1.8 | 1.9± 0.4 | dose-dependently activated | significantly abrogate | > 20 | not observed | induction of CNR1 expression [12]: did not induce CNR1 expression; PRE-luciferase activation versus solvent control ([6]; 20 μM, T47D cells): reached significance
O=c1c(-c2ccc(O)cc2)coc2cc(O)cc(O)c12 [Genistein] | – | – | > 250 | 2.2 ± 1.1 | – | – | – | – | CC50 at 24 h [1]: > 20 µM
COc1ccc(-c2coc3cc(O)ccc3c2=O)cc1 [Formononetin, formononetin] | – | – | > 250 | 1.5 ± 0.6 | – | – | > 20 | – | –
